Data on 28 compounds can be found in PubChem BioAssay (NCI).

Where “and” joins values, the source holds several entries; their conditions need not be identical. Equal entries are not always repeated.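 Where inhibition never reached the appropriate level, the endpoint shown equals the highest concentration tested. Otherwise, values were interpolated linearly from a five-concentration, 48-hour dose response in 96-well plates. The concentration for 50% growth inhibition is given as GI50. TGI marks complete inhibition of growth.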

The subject of one test is SK-OV-3 ovarian. Kind of test: inhibition of tumour cell growth, NCI panel, 48 h.
Consider `CC(=O)[CH-]C(=O)c1ccccc1.CC(=O)[CH-]C(=O)c1ccccc1.CN(C)c1ccc([O-])cc1.CN(C)c1ccc([O-])cc1.Cl.[Ti+4]`, for which the GI50 is 17.1 µM and the TGI is above 31.6 µM.
In the case of `NC1=NCCC1(c1ccccc1)c1ccccn1` (stereo unspecified), the TGI was above 100 µM.
On to `CCCCCCCCCCCC(=O)OCCOCCOCCOCCOCCOCc1ccccc1`, for which the TGI was above 100 µM.
As to `CCCCCCCCCCCCCC(=O)OC(/C=C/C(C)C)C(O)C(O)C(OC)C(=O)NC1CCCCN(C)C1=O` (stereo unspecified), the GI50 is above 49 µM; the TGI is 11.5 µM and > 49 µM.
Compound `CCOC(=O)CCC1(C(=O)OCC)CCCCC1=O` (stereo unspecified) yielded a TGI above 100 µM.
The same measure, in the same setting: the result for `COC(=O)c1ccccc1NC(=O)C(=O)Cc1nc2c3c(ccc2[nH]c1=O)C(=O)c1ccccc1C3=O` reads above 100 µM; that for `CCCC1C(=O)CCc2c(OC)ccc(OC)c21` (stereo unspecified), above 100 µM; that for `NC(=O)NO.O.O.O.O.O.O.O.O.O.O.O.[Ge].[Ge].[Ge].[Ge].[Ge].[O]=[Ge].[O]=[Ge].[O]=[Ge].[O]=[Ge].[O]=[Ge][OH]`, above 100 µM.
In turn, `O=C(Nc1nc2ccc([N+](=O)[O-])cc2s1)C(=O)C(C1OC(=O)c2ccccc21)[N+](=O)[O-]` (stereo unspecified) gave a TGI above 100 µM.
As to `CCC[CH2][Sn]([CH2]CCC)([S]c1cccc2cccnc12)[S]c1cccc2cccnc12`, the GI50 is 0.324 µM and the TGI was 1.18 µM.
With `COC(=O)C1(C(C)C)CCc2c(OC)ccc(OC)c2C1=O` (stereo unspecified), the TGI is above 100 µM.

The next test concerns OVCAR-8 ovarian. Kind of test: inhibition of tumour cell growth, NCI panel, 48 h.
Compound `Cc1c(C(=O)CC(=O)C(=O)Nc2ccccc2C(F)(F)F)[n+](=O)c2ccccc2n1[O-]` yielded a TGI of 61.3 µM.
The compound `Cc1cc(N(CCC#N)CCC#N)ccc1N=Nc1ccc(S(N)(=O)=O)cc1` registered a TGI above 100 µM.
For the compound `Cc1nc2c(ccc3ncccc32)[nH]1`, the TGI was above 100 µM.
On to `C1=C2/CC[C@H](Sc3ccccc3)C2C2(CCCCC/1)OCCO2` (stereo partly specified), for which the TGI is above 100 µM.
Same read-out and setting: the result for `O=C(CCc1nc(=S)[nH][nH]1)Nc1cc(Cl)c(Cl)cc1Cl` reads above 100 µM; that for `CN(C)C(=S)N=C(Nc1ccccc1)Nc1ccccc1`, above 100 µM.
The compound `Nc1ccccc1S(=O)(=O)N(CC(=O)O)c1ccccc1` gave a TGI above 100 µM.
In the case of `CC1(C)C(=O)/C=C\C(=O)C(C)(C)C2=CC=C(O2)C(C)(C)C(=O)/C=C\C(=O)C(C)(C)C2=CC=C1O2`, the TGI is above 100 µM.
The same measure, in the same setting: the result for `COc1ccccc1N1C(=O)C2c3[nH]c4ccccc4c3C3CCC(C(C)(C)C)CC3C2C1=O` (stereo unspecified) reads above 100 µM; that for `Cc1cc(NS(=O)(=O)c2ccc(Nc3c4ccccc4nc4c(C(=O)N5CCN(CCOS(C)(=O)=O)CC5)cccc34)cc2)no1`, above 100 µM.
For the compound `C=CCO[C@H]1CO[C@H]2[C@@H]1OC[C@@H]2Oc1ccc(Nc2ccnc(Nc3ccc(O[C@H]4CO[C@H]5[C@@H]4OC[C@@H]5OCC=C)c(Cl)c3)n2)cc1Cl`, the GI50 was 1.93 µM and the TGI was 5.92 µM.
With `O=C(O)CCC(NC(=O)c1ccc(Nc2nc3ccccc3nc2-c2cccs2)cc1)C(=O)O` (stereo unspecified), the TGI is above 100 µM.
The same measure, in the same setting: the result for `COc1cc2ccnc([C@@H](OC(=O)c3ccccc3)c3ccc(OC)c(OC)c3OC)c2cc1OC` reads above 100 µM.
On the same count and under the same terms, with `CCn1c(C)nn2c(=O)c3ccccc3nc2c1=O` the figure was above 100 µM.
The same measure, in the same setting: the result for `COC(=O)/C(C#N)=C1\NC(=O)c2ccccc21` reads above 100 µM; that for `O=C(O)CCNCCCNCCC(=O)O`, above 100 µM.
Regarding `CC(=O)[CH-]C(=O)c1ccccc1.CC(=O)[CH-]C(=O)c1ccccc1.CN(C)c1ccc([O-])cc1.CN(C)c1ccc([O-])cc1.Cl.[Ti+4]`, the GI50 is 21.9 µM and the TGI was above 31.6 µM.
`NC1=NCCC1(c1ccccc1)c1ccccn1` (stereo unspecified) registered a TGI above 100 µM.
Same read-out and setting: with `CCCCCCCCCCCC(=O)OCCOCCOCCOCCOCCOCc1ccccc1` the figure was above 100 µM.
Same read-out and setting: the result for `CCCCCCCCCCCCCC(=O)OC(/C=C/C(C)C)C(O)C(O)C(OC)C(=O)NC1CCCCN(C)C1=O` (stereo unspecified) reads 8.44 µM and > 49 µM.
`CCOC(=O)CCC1(C(=O)OCC)CCCCC1=O` (stereo unspecified) had a TGI above 100 µM.
On the same count and under the same terms, with `COC(=O)c1ccccc1NC(=O)C(=O)Cc1nc2c3c(ccc2[nH]c1=O)C(=O)c1ccccc1C3=O` the figure was above 100 µM.
Same read-out and setting: the result for `CCOC(=O)C(C)(C)Oc1ccc2c(-c3ccccc3)cc(=O)oc2c1` reads above 100 µM; that for `CCCC1C(=O)CCc2c(OC)ccc(OC)c21` (stereo unspecified), above 100 µM; that for `NC(=O)NO.O.O.O.O.O.O.O.O.O.O.O.[Ge].[Ge].[Ge].[Ge].[Ge].[O]=[Ge].[O]=[Ge].[O]=[Ge].[O]=[Ge].[O]=[Ge][OH]`, above 100 µM.
The compound `O=C(Nc1nc2ccc([N+](=O)[O-])cc2s1)C(=O)C(C1OC(=O)c2ccccc21)[N+](=O)[O-]` (stereo unspecified) showed a TGI above 100 µM.
In the case of `CCC[CH2][Sn]([CH2]CCC)([S]c1cccc2cccnc12)[S]c1cccc2cccnc12`, the GI50 was 0.283 µM and the TGI is 1.16 µM.
Compound `COC(=O)C1(C(C)C)CCc2c(OC)ccc(OC)c2C1=O` (stereo unspecified) had a TGI above 100 µM.

A further test concerns A549 NSCLC. Kind of test: inhibition of tumour cell growth, NCI panel, 48 h.
The compound `Cc1c(C(=O)CC(=O)C(=O)Nc2ccccc2C(F)(F)F)[n+](=O)c2ccccc2n1[O-]` had a TGI of 75.6 µM.
Same read-out and setting: with `Cc1cc(N(CCC#N)CCC#N)ccc1N=Nc1ccc(S(N)(=O)=O)cc1` the figure was above 100 µM.
Compound `Cc1nc2c(ccc3ncccc32)[nH]1` showed a TGI above 100 µM.
Same read-out and setting: with `O=C(CCc1nc(=S)[nH][nH]1)Nc1cc(Cl)c(Cl)cc1Cl` the figure was above 100 µM; with `CN(C)C(=S)N=C(Nc1ccccc1)Nc1ccccc1`, above 100 µM.
Still for that read-out and setting: the result for `Nc1ccccc1S(=O)(=O)N(CC(=O)O)c1ccccc1` reads above 100 µM; that for `CC1(C)C(=O)/C=C\C(=O)C(C)(C)C2=CC=C(O2)C(C)(C)C(=O)/C=C\C(=O)C(C)(C)C2=CC=C1O2`, above 100 µM.
`COc1ccccc1N1C(=O)C2c3[nH]c4ccccc4c3C3CCC(C(C)(C)C)CC3C2C1=O` (stereo unspecified) yielded a TGI above 100 µM.
`Cc1cc(NS(=O)(=O)c2ccc(Nc3c4ccccc4nc4c(C(=O)N5CCN(CCOS(C)(=O)=O)CC5)cccc34)cc2)no1` registered a TGI above 100 µM.
In the case of `C=CCO[C@H]1CO[C@H]2[C@@H]1OC[C@@H]2Oc1ccc(Nc2ccnc(Nc3ccc(O[C@H]4CO[C@H]5[C@@H]4OC[C@@H]5OCC=C)c(Cl)c3)n2)cc1Cl`, the GI50 was 1.84 µM and the TGI was found to be 3.95 µM.
`O=C(O)CCC(NC(=O)c1ccc(Nc2nc3ccccc3nc2-c2cccs2)cc1)C(=O)O` (stereo unspecified) had a TGI above 100 µM.
The compound `COc1cc2ccnc([C@@H](OC(=O)c3ccccc3)c3ccc(OC)c(OC)c3OC)c2cc1OC` displayed a TGI above 100 µM.
On the same count and under the same terms, with `CCn1c(C)nn2c(=O)c3ccccc3nc2c1=O` the figure was above 100 µM; with `COC(=O)/C(C#N)=C1\NC(=O)c2ccccc21`, above 100 µM.
On the same count and under the same terms, with `O=C(O)CCNCCCNCCC(=O)O` the figure was above 100 µM.
On to `CC(=O)[CH-]C(=O)c1ccccc1.CC(=O)[CH-]C(=O)c1ccccc1.CN(C)c1ccc([O-])cc1.CN(C)c1ccc([O-])cc1.Cl.[Ti+4]`, for which the GI50 was 29 µM and the TGI is above 31.6 µM.
Take `NC1=NCCC1(c1ccccc1)c1ccccn1` (stereo unspecified): the TGI is above 100 µM.
Take `CCCCCCCCCCCC(=O)OCCOCCOCCOCCOCCOCc1ccccc1`: the TGI was above 100 µM.
Still for that read-out and setting: the result for `CCCCCCCCCCCCCC(=O)OC(/C=C/C(C)C)C(O)C(O)C(OC)C(=O)NC1CCCCN(C)C1=O` (stereo unspecified) reads 5.06 µM and > 49 µM.
